Legend:
[1] = PK of orally administered TFV; format: in vivo
in vivo = experiment: in vivo; set-up: species or system non-humanized mice; conditions: female, mouse, po, 61.5 mg/kg
HIV [2] = conditions: Partners PrEP study; oral; serodiscordant couples; ref Baeten et al., 2012; cited from earlier work
HIV [3] = conditions: hu-mice; oral administration at allometric dosing levels; ref Neff et al., 2010; cited from earlier work
[4] = female, BALB/c Rag1−/− or Rag2−/−γc−/− (humanized, Hu-HSC RAG-hu), mouse, intestinal tissue, po, 61.5 mg/kg
[5] = female, BALB/c Rag1−/− or Rag2−/−γc−/− (humanized, Hu-HSC RAG-hu), mouse, plasma, po, 61.5 mg/kg
[6] = female, BALB/c Rag1−/− or Rag2−/−γc−/− (humanized, Hu-HSC RAG-hu), mouse, rectal tissue, po, 61.5 mg/kg
[7] = female, BALB/c Rag1−/− or Rag2−/−γc−/− (humanized, Hu-HSC RAG-hu), mouse, vaginal tissue, po, 61.5 mg/kg

Compound: CC(Cn1cnc2c(N)ncnc21)OCP(=O)(O)OP(=O)(O)OP(=O)(O)O (stereo in doubt) [TFV-DP, Tenofovir Diphosphate]
- AUC24h intestinal:rectal tissue ratio ([1]; hu-mice, TFV oral 61.5 mg/kg x 5 days): 2.45

Compound: C[C@H](Cn1cnc2c(N)ncnc21)OCP(=O)(O)O [TFV, Tenofovir]
- AUC(0-t) (in vivo): 17300 ng·h/mL
- Tmax (in vivo): 8 h
- Cmax (in vivo; Cmax (median)): 1550 ng/mL
- reduction in HIV-1 incidence (HIV [2]): 67%
- AUC(0-t) ([1]; female, BALB/c Rag1−/− or Rag2−/−γc−/− (humanized, Hu-HSC RAG-hu), mouse, in vivo, po, 61.5 mg/kg): 11300 ng·h/mL
- Cmax ([1]; female, BALB/c Rag1−/− or Rag2−/−γc−/− (humanized, Hu-HSC RAG-hu), mouse, in vivo, po, 61.5 mg/kg, Cmax (median)): 1990 ng/mL
- Tmax [1, 4]: 2 h
- half-life [1, 4]: 13.9 h
- Tmax [1, 5]: 2 h
- half-life [1, 5]: 17 h
- Tmax [1, 6]: 2 h
- half-life [1, 6]: 13.5 h
- Tmax [1, 7]: 2 h
- half-life [1, 7]: 9 h

Compound: Maraviroc [MVC]
- protection against HIV vaginal challenge (HIV [3]): fully protective

Reference: publication PMC4484790 (Virology, 2014)
